Measurements as given in BindingDB's records for doi:10.1021/jm800940u (Schering-Plough Research Institute, 2009).

Target: Genome polyprotein (Hepatitis C virus genotype 1a (isolate H77), UniProt P27958)
Experiment: Continuous Spectrophotometric Assay
Conditions: not given
Experimental: Proteolytic cleavage of the ester linkage between the Nva (L-norvaline) and the chromophore (PAP) was monitored for change in absorbance at 370 nm. Initial velocities were determined using linear regression and kinetic constants were obtained by fitting the data to the Michaelis-Menten equation.

Chain of Genome polyprotein (P27958 1027-1657 limits assumed): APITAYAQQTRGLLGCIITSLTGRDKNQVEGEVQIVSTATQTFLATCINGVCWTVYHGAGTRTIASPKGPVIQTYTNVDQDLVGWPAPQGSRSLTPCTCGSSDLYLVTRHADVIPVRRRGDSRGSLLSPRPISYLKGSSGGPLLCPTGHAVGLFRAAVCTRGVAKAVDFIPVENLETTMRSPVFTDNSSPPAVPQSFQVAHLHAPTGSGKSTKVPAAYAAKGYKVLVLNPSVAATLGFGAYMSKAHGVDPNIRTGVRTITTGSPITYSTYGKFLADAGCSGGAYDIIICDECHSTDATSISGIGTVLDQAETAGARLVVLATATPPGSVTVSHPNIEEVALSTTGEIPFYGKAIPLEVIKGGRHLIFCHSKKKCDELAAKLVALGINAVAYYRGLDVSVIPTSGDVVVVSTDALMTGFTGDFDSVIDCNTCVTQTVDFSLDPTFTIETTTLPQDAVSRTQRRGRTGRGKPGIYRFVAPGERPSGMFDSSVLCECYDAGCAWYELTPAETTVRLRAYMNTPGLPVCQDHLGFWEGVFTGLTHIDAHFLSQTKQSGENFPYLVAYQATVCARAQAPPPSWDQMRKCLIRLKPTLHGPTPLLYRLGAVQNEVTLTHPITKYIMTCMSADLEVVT

SMILES	Ki [nM]
C=CCNC(=O)C(=O)[C@@H]1CCCCCCCCC[C@H](NC(=O)N[C@H](C(=O)C2CC2)C2CCCCC2)C(=O)N2C[C@H]3[C@@H]([C@H]2C(=O)N1)C3(C)C [2-[(3S,13S,16S,17R,19S)-3-({[(1S)-1-cyclohexyl-2-cyclopropyl-2-oxoethyl]carbamoyl}amino)-18,18-dimethyl-2,15-dioxo-1,14-diazatricyclo[14.4.0.0^{17,19}]icosan-13-yl]-2-oxo-N-(prop-2-en-1-yl)acetamide]	6
C=CCNC(=O)C(=O)[C@@H]1CCCCCCCCC[C@H](NC(=O)N[C@H](CN2C(=O)CN(C)CC2=O)C(C)(C)C)C(=O)N2C[C@H]3[C@@H]([C@H]2C(=O)N1)C3(C)C [2-[(3S,13S,16S,17R,19S)-3-({[(2S)-3,3-dimethyl-1-(4-methyl-2,6-dioxopiperazin-1-yl)butan-2-yl]carbamoyl}amino)-18,18-dimethyl-2,15-dioxo-1,14-diazatricyclo[14.4.0.0^{17,19}]icosan-13-yl]-2-oxo-N-(prop-2-en-1-yl)acetamide]	4
C=CCNC(=O)C(=O)[C@@H]1CCCCCCCCC[C@H](NC(=O)N[C@H](CN2C(=O)CC(C)(C)CC2=O)C(C)(C)C)C(=O)N2C[C@H]3[C@@H]([C@H]2C(=O)N1)C3(C)C [2-[(3S,13S,16S,17R,19S)-3-({[(2S)-1-(4,4-dimethyl-2,6-dioxopiperidin-1-yl)-3,3-dimethylbutan-2-yl]carbamoyl}amino)-18,18-dimethyl-2,15-dioxo-1,14-diazatricyclo[14.4.0.0^{17,19}]icosan-13-yl]-2-oxo-N-(prop-2-en-1-yl)acetamide]	2
C=CCNC(=O)C(=O)[C@@H]1CCCCCCCCC[C@H](NC(=O)N[C@H](CN2CCC(C)(C)CC2=O)C(C)(C)C)C(=O)N2C[C@H]3[C@@H]([C@H]2C(=O)N1)C3(C)C [2-[(3S,13S,16S,17R,19S)-3-({[(2S)-1-(4,4-dimethyl-2-oxopiperidin-1-yl)-3,3-dimethylbutan-2-yl]carbamoyl}amino)-18,18-dimethyl-2,15-dioxo-1,14-diazatricyclo[14.4.0.0^{17,19}]icosan-13-yl]-2-oxo-N-(prop-2-en-1-yl)acetamide]	2
C=CCNC(=O)C(=O)[C@@H]1CCCCCCCCC[C@H](NC(=O)N[C@H](CN2C(=O)c3ccccc3C2=O)C(C)(C)C)C(=O)N2C[C@H]3[C@@H]([C@H]2C(=O)N1)C3(C)C [2-[(3S,13S,16S,17R,19S)-3-({[(2S)-1-(1,3-dioxo-2,3-dihydro-1H-isoindol-2-yl)-3,3-dimethylbutan-2-yl]carbamoyl}amino)-18,18-dimethyl-2,15-dioxo-1,14-diazatricyclo[14.4.0.0^{17,19}]icosan-13-yl]-2-oxo-N-(prop-2-en-1-yl)acetamide]	16

Further lines, results first:

Ki [nM]	SMILES
7	C=CCNC(=O)C(=O)[C@@H]1CCCCCCCCC[C@H](NC(=O)N[C@H](CN2Cc3sccc3S2(=O)=O)C(C)(C)C)C(=O)N2C[C@H]3[C@@H]([C@H]2C(=O)N1)C3(C)C [2-[(3S,13S,16S,17R,19S)-3-({[(2S)-1-(1,1-dioxo-2H,3H-1,4,2-thieno[2,3-d][1,2]thiazol-2-yl)-3,3-dimethylbutan-2-yl]carbamoyl}amino)-18,18-dimethyl-2,15-dioxo-1,14-diazatricyclo[14.4.0.0^{17,19}]icosan-13-yl]-2-oxo-N-(prop-2-en-1-yl)acetamide]
3	C=CCNC(=O)C(=O)[C@@H]1CCCCCCCCC[C@H](NC(=O)N[C@H](CN(C)S(C)(=O)=O)C(C)(C)C)C(=O)N2C[C@H]3[C@@H]([C@H]2C(=O)N1)C3(C)C [2-[(3S,13S,16S,17R,19S)-3-({[(2S)-1-[methane(methyl)sulfonamido]-3,3-dimethylbutan-2-yl]carbamoyl}amino)-18,18-dimethyl-2,15-dioxo-1,14-diazatricyclo[14.4.0.0^{17,19}]icosan-13-yl]-2-oxo-N-(prop-2-en-1-yl)acetamide]
13	C=CCNC(=O)C(=O)[C@@H]1CCCCCCCCC[C@H](NC(=O)N[C@H](CN(C)S(=O)(=O)N(C)C)C(C)(C)C)C(=O)N2C[C@H]3[C@@H]([C@H]2C(=O)N1)C3(C)C [2-[(3S,13S,16S,17R,19S)-3-({[(2S)-1-[(dimethylsulfamoyl)(methyl)amino]-3,3-dimethylbutan-2-yl]carbamoyl}amino)-18,18-dimethyl-2,15-dioxo-1,14-diazatricyclo[14.4.0.0^{17,19}]icosan-13-yl]-2-oxo-N-(prop-2-en-1-yl)acetamide]
7	C=CCNC(=O)C(=O)[C@@H]1CCCCCCCCC[C@H](NC(=O)N[C@H](CN(C)S(=O)(=O)c2ccccn2)C(C)(C)C)C(=O)N2C[C@H]3[C@@H]([C@H]2C(=O)N1)C3(C)C [2-[(3S,13S,16S,17R,19S)-3-({[(2S)-3,3-dimethyl-1-[methyl(pyridine-2-)sulfonamido]butan-2-yl]carbamoyl}amino)-18,18-dimethyl-2,15-dioxo-1,14-diazatricyclo[14.4.0.0^{17,19}]icosan-13-yl]-2-oxo-N-(prop-2-en-1-yl)acetamide]

Same assay, conditions: pH 6.5; 30 °C

SMILES	Ki [nM]
CC(C)[C@H](NC(=O)N[C@H]1CCCCCCCCC[C@@H](C(=O)C(N)=O)NC(=O)[C@@H]2[C@@H]3[C@H](CN2C1=O)C3(C)C)C(=O)C1CC1 [2-[(3S,13S,16S,17R,19S)-3-({[(2S)-1-cyclopropyl-3-methyl-1-oxobutan-2-yl]carbamoyl}amino)-18,18-dimethyl-2,15-dioxo-1,14-diazatricyclo[14.4.0.0^{17,19}]icosan-13-yl]-2-oxoacetamide]	11
CC(C)(C)OC(=O)N[C@H]1CCCCCCCCC[C@@H](C(=O)C(N)=O)NC(=O)[C@@H]2[C@@H]3[C@H](CN2C1=O)C3(C)C [tert-butyl N-[(3S,13S,16S,17R,19S)-13-(carbamoylcarbonyl)-18,18-dimethyl-2,15-dioxo-1,14-diazatricyclo[14.4.0.0^{17,19}]icosan-3-yl]carbamate]	30
CN(C)C(=O)[C@@H](NC(=O)CNC(=O)C(=O)[C@@H]1CCCCCCCCCC[C@H](NC(=O)OC(C)(C)C)C(=O)N2C[C@H]3[C@@H]([C@H]2C(=O)N1)C3(C)C)c1ccccc1 [tert-butyl N-[(3S,14S,17S,18R,20S)-14-{[({[(S)-(dimethylcarbamoyl)(phenyl)methyl]carbamoyl}methyl)carbamoyl]carbonyl}-19,19-dimethyl-2,16-dioxo-1,15-diazatricyclo[15.4.0.0^{18,20}]henicosan-3-yl]carbamate]	6
CC(C)(C)OC(=O)N[C@H]1CCCCCCC[C@@H](C(=O)C(N)=O)NC(=O)[C@@H]2[C@@H]3[C@H](CN2C1=O)C3(C)C [tert-butyl N-[(3S,11S,14S,15R,17S)-11-(carbamoylcarbonyl)-16,16-dimethyl-2,13-dioxo-1,12-diazatricyclo[12.4.0.0^{15,17}]octadecan-3-yl]carbamate]	210
CC(C)(C)OC(=O)N[C@H]1CCCCCCCC[C@@H](C(=O)C(N)=O)NC(=O)[C@@H]2[C@@H]3[C@H](CN2C1=O)C3(C)C [tert-butyl N-[(3S,12S,15S,16R,18S)-12-(carbamoylcarbonyl)-17,17-dimethyl-2,14-dioxo-1,13-diazatricyclo[13.4.0.0^{16,18}]nonadecan-3-yl]carbamate]	36
CC(C)(C)NC(=O)C(=O)[C@@H]1CCCCCCCCCC[C@H](NC(=O)OC(C)(C)C)C(=O)N2C[C@H]3[C@@H]([C@H]2C(=O)N1)C3(C)C [tert-butyl N-[(3S,14S,17S,18R,20S)-14-[(tert-butylcarbamoyl)carbonyl]-19,19-dimethyl-2,16-dioxo-1,15-diazatricyclo[15.4.0.0^{18,20}]henicosan-3-yl]carbamate]	6000
CN(C)C(=O)[C@@H](NC(=O)CNC(=O)C(=O)[C@@H]1CCCC/C=C/CCCC[C@H](NC(=O)OC(C)(C)C)C(=O)N2C[C@H]3[C@@H]([C@H]2C(=O)N1)C3(C)C)c1ccccc1 [tert-butyl N-[(3S,8E,14S,17S,18R,20S)-14-{[({[(S)-(dimethylcarbamoyl)(phenyl)methyl]carbamoyl}methyl)carbamoyl]carbonyl}-19,19-dimethyl-2,16-dioxo-1,15-diazatricyclo[15.4.0.0^{18,20}]henicos-8-en-3-yl]carbamate]	5
C=CCCCC[C@H](NC(=O)[C@@H]1[C@@H]2[C@H](CN1C(=O)[C@H](CCCCC=C)NC(=O)OC(C)(C)C)C2(C)C)C(=O)C(N)=O [tert-butyl N-[(2S)-1-[(1R,2S,5S)-2-{[(2S)-1-carbamoyl-1-oxooct-7-en-2-yl]carbamoyl}-6,6-dimethyl-3-azabicyclo[3.1.0]hexan-3-yl]-1-oxooct-7-en-2-yl]carbamate]	250

The next lines start with the values.

Ki [nM]	SMILES
21	CN(C[C@@H](NC(=O)N[C@H]1CCCCCCCCC[C@@H](C(=O)C(=O)NCC2CC2)NC(=O)[C@@H]2[C@@H]3[C@H](CN2C1=O)C3(C)C)C(C)(C)C)S(=O)(=O)c1cccs1 [N-(cyclopropylmethyl)-2-[(3S,13S,16S,17R,19S)-3-({[(2S)-3,3-dimethyl-1-[methyl(thiophene-2-)sulfonamido]butan-2-yl]carbamoyl}amino)-18,18-dimethyl-2,15-dioxo-1,14-diazatricyclo[14.4.0.0^{17,19}]icosan-13-yl]-2-oxoacetamide]
10	CCNC(=O)C(=O)[C@@H]1CCCCCCCCC[C@H](NC(=O)N[C@H](CN(C)S(=O)(=O)c2cccs2)C(C)(C)C)C(=O)N2C[C@H]3[C@@H]([C@H]2C(=O)N1)C3(C)C [2-[(3S,13S,16S,17R,19S)-3-({[(2S)-3,3-dimethyl-1-[methyl(thiophene-2-)sulfonamido]butan-2-yl]carbamoyl}amino)-18,18-dimethyl-2,15-dioxo-1,14-diazatricyclo[14.4.0.0^{17,19}]icosan-13-yl]-N-ethyl-2-oxoacetamide]
2	CN(C[C@@H](NC(=O)N[C@H]1CCCCCCCCC[C@@H](C(=O)C(N)=O)NC(=O)[C@@H]2[C@@H]3[C@H](CN2C1=O)C3(C)C)C(C)(C)C)S(=O)(=O)c1cccs1 [2-[(3S,13S,16S,17R,19S)-3-({[(2S)-3,3-dimethyl-1-[methyl(thiophene-2-)sulfonamido]butan-2-yl]carbamoyl}amino)-18,18-dimethyl-2,15-dioxo-1,14-diazatricyclo[14.4.0.0^{17,19}]icosan-13-yl]-2-oxoacetamide]
